Source: the NIST ThermoML archive (doi:10.1021/je049738c)

Key:
[1] = xn = mol fraction of the nth substance listed; conditions: 298.15 K, 101.3 kPa, Liquid
[2] = heat capacity at constant pressure per volume; xn = mol fraction of the nth substance listed; conditions: 298.15 K, 101.3 kPa, Liquid, Flow calorimetry
[3] = 298.15 K; 101.33 kPa; Liquid
[4] = molar heat capacity at constant pressure; conditions: 298.15 K; 101.33 kPa; Liquid; Flow calorimetry

CC(C)(C)CO [2,2-dimethyl-1-propanol] + O
Conditions	heat capacity, [2] [J/K/m3]	mass density, [1] [kg/m3]
x1 = 0.001702	4176200	995.77
x1 = 0.002268	4178900	995.36
x1 = 0.002665	4181000	995.08
x1 = 0.003113	4183100	994.74
x1 = 0.003563	4185300	994.42
x1 = 0.004331	4189100	993.87
x1 = 0.004832	4191800	993.52

CCC(C)CO (centres undefined) [2-methyl-1-butanol]
Conditions	mass density [kg/m3]	molar heat capacity at constant pressure [J/K/mol]
[3]	814.54	–
[4]	–	215

CCC(C)CO (centres undefined) [2-methyl-1-butanol] + O
Conditions	heat capacity, [2] [J/K/m3]	mass density, [1] [kg/m3]
x1 = 0.000842	4172700	996.43
x1 = 0.000975	4173400	996.33
x1 = 0.001072	4174000	996.28
x1 = 0.001376	4175300	996.04
x1 = 0.001398	4175600	996.04
x1 = 0.00154	4176300	995.95
x1 = 0.002056	4179200	995.56
x1 = 0.002325	4180700	995.4
x1 = 0.002361	4180800	995.38
x1 = 0.002467	4181400	995.28
x1 = 0.002771	4182700	995.09
x1 = 0.002868	4183400	995.02
x1 = 0.002988	4184000	994.91
x1 = 0.003068	4184200	994.84
x1 = 0.003107	4184500	994.81
x1 = 0.003446	4186500	994.6

CC(C)CO [2-methyl-1-propanol]
Conditions	mass density [kg/m3]	molar heat capacity at constant pressure [J/K/mol]
[3]	797.63	–
[4]	–	181.9

CC(C)CO [2-methyl-1-propanol] + O
Conditions	heat capacity, [2] [J/K/m3]	mass density, [1] [kg/m3]
x1 = 0.001575	4175200	995.99
x1 = 0.00181	4176000	995.84
x1 = 0.003631	4184200	994.66
x1 = 0.006044	4195700	993.15
x1 = 0.009083	4209900	991.35
x1 = 0.01143	4220800	989.99
x1 = 0.01647	4247000	987.23

CCC(C)(C)O [2-methylbutan-2-ol]
Conditions	mass density [kg/m3]	molar heat capacity at constant pressure [J/K/mol]
[3]	804.01	–
[4]	–	251.1

CCC(C)(C)O [2-methylbutan-2-ol] + O
Conditions	heat capacity, [2] [J/K/m3]	mass density, [1] [kg/m3]
x1 = 0.00166	4180000	995.9
x1 = 0.001774	4181000	995.84
x1 = 0.002795	4188600	995.15
x1 = 0.005273	4207000	993.56
x1 = 0.006999	4220500	992.51
x1 = 0.009307	4239300	991.15
x1 = 0.01213	4263400	989.63
x1 = 0.01355	4275900	988.89

CC(C)(C)O [2-methylpropan-2-ol] + O
Conditions	heat capacity, [2] [J/K/m3]	mass density, [1] [kg/m3]
x1 = 0.000883	4173400	996.41
x1 = 0.001796	4178600	995.74
x1 = 0.002923	4185200	994.98
x1 = 0.004051	4192000	994.22
x1 = 0.006409	4206500	992.64
x1 = 0.00867	4220900	991.22
x1 = 0.01153	4239100	989.43
x1 = 0.01716	4276400	986.35

CC(C)C(C)O (centres undefined) [3-methyl-2-butanol]
Conditions	mass density [kg/m3]	molar heat capacity at constant pressure [J/K/mol]
[3]	812.31	–
[4]	–	249.5

CC(C)C(C)O (centres undefined) [3-methyl-2-butanol] + O
Conditions	heat capacity, [2] [J/K/m3]	mass density, [1] [kg/m3]
x1 = 0.000786	4172900	996.49
x1 = 0.001489	4177000	996.01
x1 = 0.001981	4180000	995.68
x1 = 0.004452	4194900	994.09
x1 = 0.005029	4198500	993.72
x1 = 0.006358	4206900	992.91
x1 = 0.007481	4213800	992.25
x1 = 0.008252	4218900	991.83

CC(C)CCO [3-methylbutan-1-ol]
Conditions	mass density [kg/m3]	molar heat capacity at constant pressure [J/K/mol]
[3]	804.18	–
[4]	–	209.3

CC(C)CCO [3-methylbutan-1-ol] + O
Conditions	heat capacity, [2] [J/K/m3]	mass density, [1] [kg/m3]
x1 = 0.000488	4170700	996.67
x1 = 0.000691	4171700	996.51
x1 = 0.001002	4173400	996.29
x1 = 0.001048	4173600	996.22
x1 = 0.00119	4174300	996.13
x1 = 0.001204	4174400	996.13
x1 = 0.001362	4175200	995.99
x1 = 0.001742	4177100	995.68
x1 = 0.002039	4178600	995.47
x1 = 0.002063	4178800	995.45
x1 = 0.002225	4179800	995.36

CCC(O)CC [3-pentanol]
Conditions	mass density [kg/m3]	molar heat capacity at constant pressure [J/K/mol]
[3]	815.3	–
[4]	–	254.6

CCC(O)CC [3-pentanol] + O
Conditions	heat capacity, [2] [J/K/m3]	mass density, [1] [kg/m3]
x1 = 0.000803	4173700	996.49
x1 = 0.001033	4175300	996.33
x1 = 0.001252	4176900	996.18
x1 = 0.001864	4181400	995.77
x1 = 0.002399	4185100	995.4
x1 = 0.003282	4191500	994.83
x1 = 0.005357	4206400	993.51
x1 = 0.005689	4209600	993.32
x1 = 0.006773	4217300	992.61

CCCCO [butan-1-ol]
Conditions	mass density [kg/m3]	molar heat capacity at constant pressure [J/K/mol]
[3]	805.62	–
[4]	–	177.1

CCCCO [butan-1-ol] + O
Conditions	heat capacity, [2] [J/K/m3]	mass density, [1] [kg/m3]
x1 = 0.001656	4176100	995.94
x1 = 0.003814	4186600	994.54
x1 = 0.005524	4195100	993.48
x1 = 0.006663	4200400	992.78
x1 = 0.009163	4213100	991.32
x1 = 0.01415	4239900	988.57
x1 = 0.01604	4251000	987.56

CCC(C)O (centres undefined) [butan-2-ol]
Conditions	mass density [kg/m3]	molar heat capacity at constant pressure [J/K/mol]
[3]	802.07	–
[4]	–	197.8

CCC(C)O (centres undefined) [butan-2-ol] + O
Conditions	heat capacity, [2] [J/K/m3]	mass density, [1] [kg/m3]
x1 = 0.001648	4177000	995.99
x1 = 0.00244	4181300	995.46
x1 = 0.003665	4188100	994.69
x1 = 0.006146	4201900	993.17
x1 = 0.006234	4202800	993.15
x1 = 0.008153	4213300	991.98
x1 = 0.009049	4218100	991.43
x1 = 0.01047	4226800	990.68
x1 = 0.01411	4248500	988.8
x1 = 0.01461	4251800	988.51
x1 = 0.01766	4270000	987

CCCCCO [pentan-1-ol]
Conditions	mass density [kg/m3]	molar heat capacity at constant pressure [J/K/mol]
[3]	810.68	–
[4]	–	208.8

CCCCCO [pentan-1-ol] + O
Conditions	heat capacity, [2] [J/K/m3]	mass density, [1] [kg/m3]
x1 = 0.001069	4174500	996.21
x1 = 0.001645	4177900	995.78
x1 = 0.001775	4178800	995.68
x1 = 0.001916	4179400	995.57
x1 = 0.002185	4181300	995.37
x1 = 0.002474	4182900	995.16
x1 = 0.002743	4184600	994.96
x1 = 0.003049	4186100	994.73
x1 = 0.003529	4189200	994.4

CCCC(C)O (centres undefined) [pentan-2-ol]
Conditions	mass density [kg/m3]	molar heat capacity at constant pressure [J/K/mol]
[3]	804.55	–
[4]	–	235.3

CCCC(C)O (centres undefined) [pentan-2-ol] + O
Conditions	heat capacity, [2] [J/K/m3]	mass density, [1] [kg/m3]
x1 = 0.001235	4176700	996.1
x1 = 0.001831	4180800	995.66
x1 = 0.002163	4182900	995.4
x1 = 0.002785	4187300	994.95
x1 = 0.003519	4192400	994.4
x1 = 0.004937	4202200	993.42
x1 = 0.0059	4209100	992.73
x1 = 0.00695	4217100	992.05

CCCO [propan-1-ol]
Conditions	mass density [kg/m3]	molar heat capacity at constant pressure [J/K/mol]
[3]	799.52	–
[4]	–	144.3

CCCO [propan-1-ol] + O
Conditions	heat capacity, [2] [J/K/m3]	mass density, [1] [kg/m3]
x1 = 0.000792	4170900	996.59
x1 = 0.002096	4175200	995.84
x1 = 0.002978	4178200	995.36
x1 = 0.006166	4189500	993.64
x1 = 0.008272	4197000	992.56
x1 = 0.01185	4209800	990.81
x1 = 0.01732	4230600	988.27
x1 = 0.02089	4243100	986.68

CC(C)O [propan-2-ol]
Conditions	mass density [kg/m3]	molar heat capacity at constant pressure [J/K/mol]
[3]	780.72	–
[4]	–	155.2

CC(C)O [propan-2-ol] + O
Conditions	heat capacity, [2] [J/K/m3]	mass density, [1] [kg/m3]
x1 = 0.001072	4172300	996.38
x1 = 0.001923	4175600	995.85
x1 = 0.003078	4179900	995.16
x1 = 0.00413	4183900	994.53
x1 = 0.005976	4191200	993.44
x1 = 0.009312	4204200	991.51
x1 = 0.01437	4225200	988.91
x1 = 0.01665	4234700	987.73
